Source: patent publication US20240307401A1, “TREATMENT OF JAK-INHIBITION-RESPONSIVE DISORDERS WITH PRODRUGS OF JAK INHIBITORS” (SUN PHARMACEEUTICAL INDUSTRIES, INC., priority 2021, published 2024)

Legend:
[1] = system: patients suffering from alopecia areata; conditions: human clinical trials, at certain doses; cited from earlier work
[2] = In vitro conversion of Compound (I-1d) DBTA salt to CTP-543 under conditions similar to human stomach (0.1N HCl, 37° C.), HPLC analysis; type: physicochemical; conditions: for CTP-543 Concentration: 28.5 mg DBTA salt in 250 mL
Method: An in vitro study was conducted to test the conversion of the dibenzoyl-D-tartaric acid (DBTA) salt of Compound (I-1d) (a compound of Formula (I)) to CTP-543 (a compound of Formula (III)) when subjected to biologically-relevant conditions similar to human stomach conditions (0.1N hydrochloric acid, 37° C.).
Study Conditions: At 37° C., 28.5 mg of Compound (I-1d)·DBTA salt (equivalent to 14.6 mg of Compound (I-1d)) was added to 250 mL of 0.1N HCl while stirring. Samples were removed via syringe at 30, 60, 120 and 240 minutes, (times relevant to potential human gastric residence time), then were filtered through a syringe filter and analyzed by HPLC.

Compound	Hair growth in patients suffering from alopecia areata [1]	% Conversion to CTP-543 ([2]; 30 min) [%]	CTP-543 Concentration ([2]; 30 min) [mg/mL]	% Conversion to CTP-543 ([2]; 60 min) [%]	CTP-543 Concentration ([2]; 60 min) [mg/mL]	% Conversion to CTP-543 ([2]; 120 min) [%]	CTP-543 Concentration ([2]; 120 min) [mg/mL]	% Conversion to CTP-543 ([2]; 240 min) [%]	CTP-543 Concentration ([2]; 240 min) [mg/mL]
[2H]C1([2H])C([C@@H](CC#N)n2cc(-c3ncnc4[nH]ccc34)cn2)C([2H])([2H])C([2H])([2H])C1([2H])[2H] [CTP-543, (R)-3-(4-(7H-pyrrolo[2,3-d]pyrimidin-4-yl)-1H-pyrazol-1-yl)-3-(cyclopentyl-2,2,3,3,4,4,5,5-d8)propanenitrile]	shown to stimulate hair growth								
[2H]C1([2H])C([C@@H](CC#N)n2cc(-c3ncnc(N)c3CC(OC)OC)cn2)C([2H])([2H])C([2H])([2H])C1([2H])[2H] [Compound (I-1d)]		8	0.004	10	0.005	16	0.008	22	0.011
